From US20240018145A1, “[…]-DEPENDENT EN[…] TREATING OR […]” (priority 2020, published 2024) come the findings set out here.

As usually defined, the EC50 is the concentration needed to bring the measured effect to its halfway point.

The experiment deals with FLU A (PR/8/34). The experiment can be described thus: Flu A Neuraminidase Antiviral Assay. The class given is cell-based.

Where two headings read alike, the source gives them in different places.

Turning to `CN1C(=O)c2c(O)c(=O)c(C#N)cn2N2C(c3ccccc3)C(CC(F)(F)F)CCC12` (stereo not shown) [Compound 133, 7-hydroxy-5-methyl-6,8-dioxo-1-phenyl-2-(2,2,2-trifluoroethyl)-1,2,3,4,4a,5,6,8-octahydrodipyrido[1,2-b:2′,1′-f][1,2,4]triazine-9-carbonitrile], under “MDCK, 48 h”, the EC50 was > 810 nM.

Turning to `CCCC1CCC2C(n3ccc(=O)c(O)c3C(=O)N2C)C1(O)c1ccccc1` (single isomer, unassigned) [Compound 166A, 1,7-dihydroxy-5-methyl-1-phenyl-2-propyl-1,3,4,4a,5,11a-hexahydro-2H-pyrido[1,2-a]quinoxaline-6,8-dione], the half-maximal effective concentration (EC50) (MDCK, 48 h) was > 8100 nM.

`CN1C(=O)c2c(O)c(=O)ccn2N2C1CCCC2(C)c1ccc(F)cc1` (single isomer, unassigned) [Compound 26B, 1-(4-fluorophenyl)-7-hydroxy-1,5-dimethyl-1,2,3,4,4a,5-hexahydrodipyrido[1,2-b:2′,1′-f][1,2,4]triazine-6,8-dione]: the midpoint of the response, the EC50, lay at 1800 nM.

For `CC1(c2ccccc2)CCCC2N(CC3CC3)C(=O)c3c(O)c(=O)ccn3N21` (single isomer, unassigned) [Compound 37A, 5-(cyclopropylmethyl)-7-hydroxy-1-methyl-1-phenyl-1,2,3,4,4a,5-hexahydrodipyrido[1,2-b:2′,1′-f][1,2,4]triazine-6,8-dione], the EC50 is 11.4 nM. This EC50 is about 160-fold lower than that of the compound before.

In turn, `CN1C(=O)c2c(O)c(=O)ccn2N2C1CCC1(CCCC(F)(F)C1)C2c1ccccc1` (single isomer, unassigned) [Compound 75D, 3,3-difluoro-7′-hydroxy-5′-methyl-1′-phenyl-3′,4′,4a′,5′-tetrahydro-1′H-spiro[cyclohexane-1,2′-dipyrido[1,2-b:2′,1′-f][1,2,4]triazine]-6′,8′-dione] yielded an EC50 of 19.2 nM. This EC50 is about 1.7-fold higher than that of the compound before.

Take `CN1C(=O)c2c(O)c(=O)ccn2N2C(c3ccccc3)CCCC12` (single isomer, unassigned) [Compound 1A, 7-hydroxy-5-methyl-1-phenyl-1,2,3,4,4a,5-hexahydrodipyrido[1,2-b:2′,1′-f][1,2,4]triazine-6,8-dione]: the EC50 was > 8100 nM.

`CN1C(=O)c2c(O)c(=O)ccn2N2C(c3ccccc3)C(CC(F)F)CCC12` (single isomer, unassigned) [Compound 129B, 2-(2,2-difluoroethyl)-7-hydroxy-5-methyl-1-phenyl-1,2,3,4,4a,5-hexahydrodipyrido[1,2-b:2′,1′-f][1,2,4]triazine-6,8-dione]: the midpoint of the response, the EC50, lay at 196 nM. This counts as sub-micromolar.

For the compound `CN1C(=O)c2c(O)c(=O)ccn2N2C(c3ccccc3C(F)(F)F)CCC12` (single isomer, unassigned) [Compound 15A, 6-hydroxy-4-methyl-1-(2-(trifluoromethyl)phenyl)-2,3,3a,4-tetrahydro-1H-pyrido[2,1-f]pyrrolo[1,2-b][1,2,4]triazine-5,7-dione], the EC50 was > 8100 nM.

For `CN1C(=O)c2c(O)c(=O)ccn2N2C(c3ccccc3)C(CC(F)(F)F)CCC12` (single isomer, unassigned) [Compound 118B, 7-hydroxy-5-methyl-1-phenyl-2-(2,2,2-trifluoroethyl)-1,2,3,4,4a,5-hexahydrodipyrido[1,2-b:2′,1′-f][1,2,4]triazine-6,8-dione], the EC50 was found to be 3.1 nM. In other words, the single-digit nanomolar range.

For `CC(C1CCC2N(C)C(=O)c3c(O)c(=O)ccn3N2C1c1ccccc1)C(F)(F)F` (single isomer, unassigned) [Compound 109B, 7-hydroxy-5-methyl-1-phenyl-2-(1,1,1-trifluoropropan-2-yl)-1,2,3,4,4a,5-hexahydrodipyrido[1,2-b:2′,1′-f][1,2,4]triazine-6,8-dione], the EC50 turned out to be 5.4 nM.

For the compound `CN1C(=O)c2c(O)c(=O)ccn2N2C(c3ccccc3)C(c3ccc(F)c(F)c3F)CCC12` (single isomer, unassigned) [Compound 85A, 7-hydroxy-5-methyl-1-phenyl-2-(2,3,4-trifluorophenyl)-1,2,3,4,4a,5-hexahydrodipyrido[1,2-b:2′,1′-f][1,2,4]triazine-6,8-dione], the EC50 is > 810 nM.

Regarding `CN1C(=O)c2c(O)c(=O)ccn2N2C(c3ccccc3Br)C(CC(F)(F)F)CCC12` (single isomer, unassigned) [Compound 89A, 1-(2-bromophenyl)-7-hydroxy-5-methyl-2-(2,2,2-trifluoroethyl)-1,2,3,4,4a,5-hexahydrodipyrido[1,2-b:2′,1′-f][1,2,4]triazine-6,8-dione], the EC50 is 298 nM. That is a sub-micromolar value.

With `O=C1c2c(O)c(=O)ccn2N2C(c3ccccc3)CCCC2N1CC1CC1` (single isomer, unassigned) [Compound 56B, 5-(cyclopropylmethyl)-7-hydroxy-1-phenyl-1,2,3,4,4a,5-hexahydrodipyrido[1,2-b:2′,1′-f][1,2,4]triazine-6,8-dione], the EC50 came out at 6850 nM.

Take `CCN1C(=O)c2c(O)c(=O)ccn2N2C1CCCC2(C)c1ccccc1` (single isomer, unassigned) [Compound 36B, 5-ethyl-7-hydroxy-1-methyl-1-phenyl-1,2,3,4,4a,5-hexahydrodipyrido[1,2-b:2′,1′-f][1,2,4]triazine-6,8-dione]: the EC50 is 1290 nM. Against the preceding compound, the EC50 is about 5.3-fold lower.

Take `CN1C(=O)c2c(O)c(=O)ccn2N2C1CCC1(CCC(C(F)(F)F)CC1)C2c1ccccc1` (single isomer, unassigned) [Compound 73A, 7′-hydroxy-5′-methyl-1′-phenyl-4-(trifluoromethyl)-3′,4′,4a′,5′-tetrahydro-1′H-spiro[cyclohexane-1,2′-dipyrido[1,2-b:2′,1′-f][1,2,4]triazine]-6′,8′-dione]: the EC50 was > 810 nM.

In turn, `Cc1ccccc1C1N2C(CCC13CC1C(C3)C1(F)F)N(C)C(=O)c1c(O)c(=O)ccn12` (single isomer, unassigned) [Compound 69C, 6,6-difluoro-7′-hydroxy-5′-methyl-1′-(o-tolyl)-3′,4′,4a′,5′-tetrahydro-1′H-spiro[bicyclo[3.1.0]hexane-3,2′-dipyrido[1,2-b:2′,1′-f][1,2,4]triazine]-6′,8′-dione] registered an EC50 of 88.4 nM.

Take `CN1C(=O)c2c(O)c(=O)ccn2N2C(c3cccc(OC(F)F)c3)CCCC12` (single isomer, unassigned) [Compound 12B, 1-(3-(difluoromethoxy)phenyl)-7-hydroxy-5-methyl-1,2,3,4,4a,5-hexahydrodipyrido[1,2-b:2′,1′-f][1,2,4]triazine-6,8-dione]: the EC50 was > 8100 nM.

The compound `CCOC1CCC2N(C)C(=O)c3c(O)c(=O)ccn3N2C1c1ccccc1` (stereo not shown) [Compound 152B, 2-ethoxy-7-hydroxy-5-methyl-1-phenyl-1,2,3,4,4a,5-hexahydrodipyrido[1,2-b:2′,1′-f][1,2,4]triazine-6,8-dione] registered an EC50 of 36.1 nM.

`CN1C(=O)c2c(O)c(=O)ccn2N2C(c3ccc(F)cc3)CCCC12` (single isomer, unassigned) [Compound 2B, 1-(4-fluorophenyl)-7-hydroxy-5-methyl-1,2,3,4,4a,5-hexahydrodipyrido[1,2-b:2′,1′-f][1,2,4]triazine-6,8-dione] returned a concentration giving a half-maximal response (EC50) of 5920 nM.

With `CN1C(=O)c2c(O)c(=O)ccn2N2C1CCC1(CCC(C(F)(F)F)CC1)C2c1ccccc1` (single isomer, unassigned) [Compound 73B, 7′-hydroxy-5′-methyl-1′-phenyl-4-(trifluoromethyl)-3′,4′,4a′,5′-tetrahydro-1′H-spiro[cyclohexane-1,2′-dipyrido[1,2-b:2′,1′-f][1,2,4]triazine]-6′,8′-dione], the EC50 was > 810 nM.

`CN1C(=O)c2c(O)c(=O)ccn2N2C(c3ccccc3)C(CCC(F)F)CCC12` (single isomer, unassigned) [Compound 124B, 2-(3,3-difluoropropyl)-7-hydroxy-5-methyl-1-phenyl-1,2,3,4,4a,5-hexahydrodipyrido[1,2-b:2′,1′-f][1,2,4]triazine-6,8-dione] displayed an EC50 of 1.6 nM.

As for `CC1(c2ccccc2)CCCC2N(CC(F)(F)F)C(=O)c3c(O)c(=O)ccn3N21` (single isomer, unassigned) [Compound 34B, 7-hydroxy-1-methyl-1-phenyl-5-(2,2,2-trifluoroethyl)-1,2,3,4,4a,5-hexahydrodipyrido[1,2-b:2′,1′-f][1,2,4]triazine-6,8-dione], the concentration for a half-maximal effect (EC50) amounted to 4.9 nM. Against the preceding compound, the EC50 is about 3.1-fold higher.

Consider `CCN1C(=O)c2c(O)c(=O)ccn2N2C(c3ccccc3C)C(CC(F)(F)F)CCC12` (single isomer, unassigned) [Compound 93B, 5-ethyl-7-hydroxy-1-(o-tolyl)-2-(2,2,2-trifluoroethyl)-1,2,3,4,4a,5-hexahydrodipyrido[1,2-b:2′,1′-f][1,2,4]triazine-6,8-dione], for which the EC50 was determined as 2.9 nM.

As to `CN1C(=O)c2c(O)c(=O)ccn2N2C(c3ccccc3)C(c3cc(F)c(F)cc3F)CCC12` (single isomer, unassigned) [Compound 86B, 7-hydroxy-5-methyl-1-phenyl-2-(2,4,5-trifluorophenyl)-1,2,3,4,4a,5-hexahydrodipyrido[1,2-b:2′,1′-f][1,2,4]triazine-6,8-dione], the EC50 is > 810 nM.

`CN1C(=O)c2c(O)c(=O)ccn2N2C1CCC(O)C2(C)c1ccccc1` (stereo not shown) [Compound 137C, 2,7-dihydroxy-1,5-dimethyl-1-phenyl-1,2,3,4,4a,5-hexahydrodipyrido[1,2-b:2′,1′-f][1,2,4]triazine-6,8-dione]: the EC50 was > 8100 nM.

For `Cc1ccc(C2(C)CCCC3N(CC(F)(F)F)C(=O)c4c(O)c(=O)ccn4N32)nc1` (single isomer, unassigned) [Compound 49A, 7-hydroxy-1-methyl-1-(5-methylpyridin-2-yl)-5-(2,2,2-trifluoroethyl)-1,2,3,4,4a,5-hexahydrodipyrido[1,2-b:2′,1′-f][1,2,4]triazine-6,8-dione], the EC50 was > 8100 nM.

For `CC1(c2ccccn2)CCCC2N(CC(F)(F)F)C(=O)c3c(O)c(=O)ccn3N21` (single isomer, unassigned) [Compound 39A, 7-hydroxy-1-methyl-1-(pyridin-2-yl)-5-(2,2,2-trifluoroethyl)-1,2,3,4,4a,5-hexahydrodipyrido[1,2-b:2′,1′-f][1,2,4]triazine-6,8-dione], the EC50 is > 8100 nM.

In turn, `CC1(c2ccccc2)CCCC2N(CC3CC(F)(F)C3)C(=O)c3c(O)c(=O)ccn3N21` (single isomer, unassigned) [Compound 45B, 5-((3,3-difluorocyclobutyl)methyl)-7-hydroxy-1-methyl-1-phenyl-1,2,3,4,4a,5-hexahydrodipyrido[1,2-b:2′,1′-f][1,2,4]triazine-6,8-dione] came in with an EC50 of 10.6 nM.
